Results reported in patent US8258159B2, “Inhibitors of the α2β1/GPIa-IIa integrin” (The Trustees Of The University Of Pennsylvania, priority 2005, dated 2012).
*1 amine or outer side, *2 acyl side, *3 side chain or, on linkers, in order; H or OH if unused. Where a SMILES comes first, the peptide text is derived from it. Side-chain parts run from the residue outwards. [ ]: non-standard residue; d: D form. The star is where a group is joined. Tos = Cc1ccc(S(=O)(=O)*)cc1; Dap = NC[C@H](N)C(=O)O; CO = O=C([*:1])[*:2]; NHBn = c1ccc(CN*)cc1

Molecular target: T1, α2β1 integrin (Homo sapiens, UniProt P05556+P17301)
T1 construct: endogenous in cells; host or cells: gel-filtered human platelets of a single donor
T1 sequence (P17301 30-1181): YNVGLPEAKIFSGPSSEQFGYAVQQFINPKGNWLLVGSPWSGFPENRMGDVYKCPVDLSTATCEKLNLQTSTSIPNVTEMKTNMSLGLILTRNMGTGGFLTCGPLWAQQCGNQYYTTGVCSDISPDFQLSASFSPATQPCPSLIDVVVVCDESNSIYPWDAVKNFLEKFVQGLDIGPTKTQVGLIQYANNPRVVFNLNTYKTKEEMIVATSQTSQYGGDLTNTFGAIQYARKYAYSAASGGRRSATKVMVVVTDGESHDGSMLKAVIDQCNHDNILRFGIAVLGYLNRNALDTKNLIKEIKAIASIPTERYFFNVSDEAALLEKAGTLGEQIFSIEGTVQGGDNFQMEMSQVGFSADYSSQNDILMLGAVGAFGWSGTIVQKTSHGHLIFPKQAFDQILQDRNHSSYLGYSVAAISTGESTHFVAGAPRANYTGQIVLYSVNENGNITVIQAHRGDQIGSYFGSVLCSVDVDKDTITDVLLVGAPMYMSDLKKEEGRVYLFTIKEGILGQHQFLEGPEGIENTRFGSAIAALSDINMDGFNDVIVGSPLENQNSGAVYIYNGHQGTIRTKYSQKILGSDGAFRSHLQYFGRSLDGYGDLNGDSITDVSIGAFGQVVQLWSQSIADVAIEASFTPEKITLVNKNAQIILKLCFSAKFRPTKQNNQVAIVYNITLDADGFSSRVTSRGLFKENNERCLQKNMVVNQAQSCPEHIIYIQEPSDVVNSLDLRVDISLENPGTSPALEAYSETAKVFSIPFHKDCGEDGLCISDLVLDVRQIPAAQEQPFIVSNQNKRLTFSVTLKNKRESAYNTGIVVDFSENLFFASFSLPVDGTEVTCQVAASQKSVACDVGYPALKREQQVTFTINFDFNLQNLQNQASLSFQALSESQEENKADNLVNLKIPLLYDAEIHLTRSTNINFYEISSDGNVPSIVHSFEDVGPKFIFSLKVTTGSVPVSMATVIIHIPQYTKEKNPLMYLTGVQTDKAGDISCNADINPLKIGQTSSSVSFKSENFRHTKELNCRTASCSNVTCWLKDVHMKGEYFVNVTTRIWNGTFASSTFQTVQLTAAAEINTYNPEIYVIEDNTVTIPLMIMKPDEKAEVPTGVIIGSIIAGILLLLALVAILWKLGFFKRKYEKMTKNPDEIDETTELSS
T1 sequence (P05556 21-798): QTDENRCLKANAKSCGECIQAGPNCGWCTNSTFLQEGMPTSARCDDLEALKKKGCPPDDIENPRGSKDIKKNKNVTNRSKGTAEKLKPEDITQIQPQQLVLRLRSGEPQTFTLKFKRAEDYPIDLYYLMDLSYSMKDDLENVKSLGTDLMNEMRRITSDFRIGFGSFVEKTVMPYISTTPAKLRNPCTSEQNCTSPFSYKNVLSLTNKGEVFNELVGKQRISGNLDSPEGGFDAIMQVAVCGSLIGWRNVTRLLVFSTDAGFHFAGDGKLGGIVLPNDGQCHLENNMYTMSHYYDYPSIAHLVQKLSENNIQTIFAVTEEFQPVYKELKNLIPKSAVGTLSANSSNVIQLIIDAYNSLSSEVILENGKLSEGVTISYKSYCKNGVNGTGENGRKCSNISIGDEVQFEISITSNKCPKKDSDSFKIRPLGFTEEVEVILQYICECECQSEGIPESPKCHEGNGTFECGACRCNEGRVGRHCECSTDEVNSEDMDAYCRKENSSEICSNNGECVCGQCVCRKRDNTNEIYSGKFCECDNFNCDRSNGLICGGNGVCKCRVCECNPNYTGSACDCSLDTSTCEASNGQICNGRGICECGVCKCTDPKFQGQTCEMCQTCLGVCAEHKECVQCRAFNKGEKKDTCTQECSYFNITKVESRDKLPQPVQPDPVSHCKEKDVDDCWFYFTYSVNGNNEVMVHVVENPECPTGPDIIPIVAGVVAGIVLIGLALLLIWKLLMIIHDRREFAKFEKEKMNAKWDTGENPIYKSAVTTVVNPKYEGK
Test: Platelet adhesion assay (human platelet adhesion to type I collagen)
Type: cell-based
Settings: human platelet adhesion to type I (soluble, monomeric) collagen, static conditions; single donor; read-out: IC50
Procedure: The inhibitory strength of the compounds of the present disclosure was analyzed as against platelet adhesion to type I collagen. Ninety-six well flat bottom microtiter plates (Immulon 2, Dynatech Laboratories, Chantilly, Va.) were coated with collagen, purified human fibrinogen, or bovine serum albumin, each dissolved in 50 mM NaHCO3 buffer, pH 8.0, containing 150 mM NaCl as previously described. See Bennett J S, Chan C, Vilaire G, Mousa S A, DeGrado W F. Agonist-Activated αvβ3 on Platelets and Lymphocytes Binds to the Matrix Protein Osteopontin. J Biol Chem. 272, 8137-814) (1997). Unoccupied protein binding sites on the wells were blocked with 5 mg/ml bovine serum albumin dissolved in the same buffer. Human platelets were isolated from blood anticoagulated with 0.1 volume 3.8% sodium citrate by gel-filtration using a 4 mM HEPES buffer, pH 7.4, containing 135 mM NaCl, 2.7 mM KCl, 5.6 mM glucose, 3.3 mM NaH2PO4, 0.35 mg/ml bovine serum albumin and various concentrations of CaCl2 or MgCl2 according to the experiment. One hundred μl aliquots of the gel-filtered platelet suspension containing 1-2×10^8 platelets were added to the protein-coated wells in the absence or presence of a platelet agonist. Following an incubation for 30 min at 37° C. without agitation, the plates were washed 4 times with the Tris-buffered NaCl, containing 2 mM MgCl2, pH 7.4, and the number of adherent platelets measured using the colorimetric assay reported by Bellavite P, Andrioli G, Guzzo P, et al. A colorimetric method for the measurement of platelet adhesion in microtiter plates. Anal Biochem. 216, 444-450 (1994). Briefly, 150 μl of a 0.1 M citrate buffer, pH 5.4, containing 5 mM p-nitrophenyl phosphate and 0.1% Triton X-100 was added to the wells after washing. After an incubation for 60 min at room temperature in the absence of ambient light, color was developed by the addition of 100 μl of 2N NaOH and, using EL800 Universal Microplate Reader (Bio-Tek Instruments, Inc., Winooski, Vt.), read in microtiter plate reader at 405 nm.
The potencies of the compounds of the present disclosure were determined by testing the ability of a range of concentrations of each compound to inhibit human platelet adhesion to soluble collagen under static conditions. Owing to the fact that soluble collagen is a specific ligand for α2β1 integrin, this is an accepted method of assessing α2β1 inhibition on platelets.
IC50 values were determined by using the platelets of a single donor. In cases where multiple assays were performed, the reported results reflect the average IC50 value derived from the separate assays.

SMILES	IC50
Cc1ccc(S(=O)(=O)N2CCC[C@H]2C(=O)N[C@@H](CNC(=O)NCc2ccccc2)C(=O)O)cc1 [Compound 27, 3-(3-Benzyl-ureido)-2-{[1-(toluene-4-sulfonyl)-pyrrolidine-2-carbonyl]-amino}-propionic acid] (Tos-Pro-[Dap]([CO-NHBn])-OH)	36 nM
O=C(NCc1ccccc1)NC[C@H](NC(=O)[C@@H]1CCCN1S(=O)(=O)c1cccc2ccccc12)C(=O)O [Compound 28]	1940 nM
O=C(Cc1ccccc1)Nc1ccc(S(=O)(=O)N2CCC[C@H]2C(=O)N[C@@H](CNC(=O)NCc2ccccc2)C(=O)O)cc1 [Compound 32, 3-(3-Benzyl-ureido)-2-{[1-(4-phenylacetylamino-benzenesulfonyl)-pyrrolidine-2-carbonyl]-amino}-propionic acid]	236 nM
O=C(NCc1ccccc1)NC[C@H](NC(=O)[C@@H]1CCCN1S(=O)(=O)c1ccc(NC(=O)Nc2ccccc2)cc1)C(=O)O [Compound 33, 3-(3-Benzyl-ureido)-2-({1-[4-(3-phenyl-ureido)-benzenesulfonyl]-pyrrolidine-2-carbonyl}-amino)-propionic acid]	151 nM
O=C(NCc1ccccc1)NC[C@H](NC(=O)[C@@H]1CCCN1S(=O)(=O)c1ccc2ccccc2c1)C(=O)O [Compound 34, 3-(3-Benzyl-ureido)-2-{[1-(naphthalene-2-sulfonyl)-pyrrolidine-2-carbonyl]-amino}-propionic acid]	50 nM
O=C(NCc1ccccc1Cl)NC[C@H](NC(=O)[C@@H]1CCCN1S(=O)(=O)c1ccccc1)C(=O)O [Compound 35, 2-[(1-Benzenesulfonyl-pyrrolidine-2-carbonyl)-amino]-3-[3-(2-chloro-benzyl)-ureido]-propionic acid]	107 nM
O=C(NC[C@H](NC(=O)[C@@H]1CCCN1S(=O)(=O)c1ccccc1)C(=O)O)Nc1ccccc1 [Compound 36, 2-[(1-Benzenesulfonyl-pyrrolidine-2-carbonyl)-amino]-3-(3-phenyl-ureido)-propionic acid]	296 nM
O=C(CCc1ccccc1)NC[C@H](NC(=O)[C@@H]1CCCN1S(=O)(=O)c1ccccc1)C(=O)O [Compound 37, 2-[(1-Benzenesulfonyl-pyrrolidine-2-carbonyl)-amino]-3-(3-phenyl-propionylamino)-propionic acid]	367 nM
O=C(NC[C@H](NC(=O)[C@@H]1CCCN1S(=O)(=O)c1ccccc1)C(=O)O)c1ccccc1 [Compound 38, 2-[(1-Benzenesulfonyl-pyrrolidine-2-carbonyl)-amino]-3-benzoylamino-propionic acid]	660 nM
O=C(NC[C@H](NC(=O)[C@@H]1CCCN1S(=O)(=O)c1ccccc1)C(=O)O)OCc1ccccc1 [Compound 39, 2-[(1-Benzenesulfonyl-pyrrolidine-2-carbonyl)-amino]-3-benzyloxycarbonylamino-propionic acid]	185 nM
COc1ccccc1CNC(=O)NC[C@H](NC(=O)[C@@H]1CCCN1S(=O)(=O)c1ccccc1)C(=O)O [Compound 40, 2-[(1-Benzenesulfonyl-pyrrolidine-2-carbonyl)-amino]-3-[3-(2-methoxy-benzyl)-ureido]-propionic acid]	467 nM
COc1cccc(CNC(=O)NC[C@H](NC(=O)[C@@H]2CCCN2S(=O)(=O)c2ccccc2)C(=O)O)c1 [Compound 41, 2-[(1-Benzenesulfonyl-pyrrolidine-2-carbonyl)-amino]-3-[3-(3-methoxy-benzyl)-ureido]-propionic acid]	160 nM
CCCNC(=O)NC[C@H](NC(=O)[C@@H]1CCCN1S(=O)(=O)c1ccccc1)C(=O)O [Compound 42, 2-[(1-Benzenesulfonyl-pyrrolidine-2-carbonyl)-amino]-3-{3-propyl-ureido)-propionic acid]	367 nM
O=C(NCc1ccccc1)NC[C@H](NC(=O)[C@@H]1CCCN1S(=O)(=O)c1cc(F)cc(F)c1)C(=O)O [Compound 43, 3-(3-Benzyl-ureido)-2-{[1-(3,5-difluoro-benzenesulfonyl)-pyrrolidine-2-carbonyl]-amino}-propionic acid]	35 nM
